# Data reported in patent publication US9949478B2, “Herbicidal combination with herbicidal active fatty acids and an ALS-inhibitor” (BAYER CROPSCIENCE AKTIENGESELLSCHAFT, priority 2013, dated 2018).
# Where “and” joins values, the source holds several entries; their conditions need not be identical. Equal values may be shown once.
# Legend:
# Assay in all cases: Post-emergence test
# Format in all cases: in vivo
# Trifolium repens = tested on: Trifolium repens
# Source text: (§1) The following formulations of the active compounds involved were used: • fatty acids 120 EC (fatty acid mixture of two fatty acids having hydrocarbon chains of 8 and 10 carbon atoms in a ratio of 60 to 40; for the preparation see EP application number 12177824.5; title: “Emulsifiable Concentrate Formulation with Herbicidal Active Fatty Acids); application date: Jul. 25, 2012). • foramsulfuron 50 WG (water dispersible granule) standard granule formulation without adjuvants • iodosulfuron 10 WG (water dispersible granule) • (commercial formulation Destiny, approved inter alia in Australia—Bayer CropScience) • mesosulfuron 75 WG (water dispersible granule) standard granule formulation without adjuvants • thiencarbazone 70 WG (water dispersible granule) standard granule formulation without adjuvants • flazasulfuron 25 WG (water dispersible granule) • (commercial formulation Chikara, approved inter alia in Germany—product licence holder ISK Biosciences) • amidosulfuron 75 WG (water dispersible granule) • (commercial formulation Hoestar, approved inter alia in Germany—Bayer CropScience) • ethoxysulfuron 60 WG (water dispersible granule) • (commercial formulation SunRice, approved inter alia in Italy—Bayer CropScience)
# (§2) The active compound concentrations required for the tests were prepared by dilution with water. The tested active compound combinations were mixed shortly before their biological examination.
# (§3) In the case of all herbicide combinations according to the invention, for most of the test plants synergistic actions are observed (see Tables 1 to 25).
# Plantago lanceolata = settings: 34 days
# Source text: as §1, §2, §3
# Stellaria media = settings: 34 days
# Source text: as §1, §2, §3
# Plantago major = tested on: Plantago major
# Source text: as §1, §2, §3
# Chenopodium album = tested on: Chenopodium album
# Source text: as §1, §2, §3
# Bellis perennis = settings: 34 days
# Source text: as §1, §2, §3
# Festuca ovina = tested on: Festuca ovina
# Source text: as §1, §2, §3
# Rumex acetosa = settings: 34 days
# Source text: as §1, §2, §3
# Ranunculus repens = settings: 34 days
# Source text: as §1, §2, §3
# Taraxacum officinale = tested on: Taraxacum officinale
# Source text: as §1, §2, §3
# Achillea millefolium = settings: 34 days
# Source text: as §1, §2, §3
# Lotus corniculatus = settings: 34 days
# Source text: as §1, §2, §3
# Poa annua = settings: 48 days
# Source text: as §1, §2, §3
# [1] = 30 g of active compound/ha, 34 days
# [2] = 60 g of active compound/ha, 34 days
# [3] = 37.5 g of active compound/ha, 34 days
# [4] = 15 g of active compound/ha, 48 days
# [5] = 45 g of active compound/ha, 34 days
# [6] = 45 g of active compound/ha, 48 days
# [7] = 60 g of active compound/ha, 48 days
# [8] = 1 g of active compound/ha, 48 days
# [9] = 1.25 g of active compound/ha, 34 days
# [10] = 1.25 g of active compound/ha, 48 days
# [11] = 2.5 g of active compound/ha, 48 days
# [12] = 10 g of active compound/ha, 48 days
# [13] = 15 g of active compound/ha, 34 days
# [14] = 20 g of active compound/ha, 34 days
structure (smiles),measurement,setting,value
"COc1cc(OC)nc(NC(=O)NS(=O)(=O)N(C)S(C)(=O)=O)n1 [Amidosulfuron, 3-(4,6-dimethoxypyrimidin-2-yl)-1-(N-methyl-N-methylsulfonylaminosulfonyl)urea]",herbicidal effect [%],Trifolium repens; [1],13%
same,herbicidal effect [%],Plantago lanceolata; 30 g of active compound/ha,13%
same,herbicidal effect [%],Stellaria media; 30 g of active compound/ha,10%
same,herbicidal effect [%],Plantago major; [1],88%
same,herbicidal effect [%],Chenopodium album; [1],27%
same,herbicidal effect [%],Bellis perennis; 30 g of active compound/ha,33%
same,herbicidal effect [%],Festuca ovina; [1],0%
same,herbicidal effect [%],Rumex acetosa; 30 g of active compound/ha,28%
same,herbicidal effect [%],Ranunculus repens; 30 g of active compound/ha,96%
same,herbicidal effect [%],Taraxacum officinale; [1],88%
same,herbicidal effect [%],Achillea millefolium; 30 g of active compound/ha,18%
same,herbicidal effect [%],Lotus corniculatus; 30 g of active compound/ha,0%
"CCOc1ccccc1OS(=O)(=O)NC(=O)Nc1nc(OC)cc(OC)n1 [Ethoxysulfuron, 2-ethoxyphenyl[(4,6-dimethoxypyrimidin-2-yl)carbamoyl]sulfamate]",herbicidal effect [%],Trifolium repens; [2],47%
same,herbicidal effect [%],Plantago lanceolata; 60 g of active compound/ha,5%
same,herbicidal effect [%],Stellaria media; 60 g of active compound/ha,5%
same,herbicidal effect [%],Plantago major; [2],0%
same,herbicidal effect [%],Chenopodium album; [2],5%
same,herbicidal effect [%],Bellis perennis; 60 g of active compound/ha,10%
same,herbicidal effect [%],Festuca ovina; [2],0%
same,herbicidal effect [%],Rumex acetosa; 60 g of active compound/ha,25%
same,herbicidal effect [%],Ranunculus repens; 60 g of active compound/ha,92%
same,herbicidal effect [%],Taraxacum officinale; [2],38%
same,herbicidal effect [%],Achillea millefolium; 60 g of active compound/ha,13%
same,herbicidal effect [%],Lotus corniculatus; 60 g of active compound/ha,0%
"COc1cc(OC)nc(NC(=O)NS(=O)(=O)c2ncccc2C(F)(F)F)n1 [Flazasulfuron, 1-(4,6-dimethoxypyrimidin-2-yl)-3-(3-trifluoromethyl-2-pyridylsulfonyl)urea]",herbicidal effect [%],Trifolium repens; [3],63%
same,herbicidal effect [%],Plantago lanceolata; 37.5 g of active compound/ha,7%
same,herbicidal effect [%],Stellaria media; 37.5 g of active compound/ha,95%
same,herbicidal effect [%],Plantago major; [3],75%
same,herbicidal effect [%],Chenopodium album; [3],70%
same,herbicidal effect [%],Bellis perennis; 37.5 g of active compound/ha,52%
same,herbicidal effect [%],Festuca ovina; [3],68%
same,herbicidal effect [%],Rumex acetosa; 37.5 g of active compound/ha,52%
same,herbicidal effect [%],Ranunculus repens; 37.5 g of active compound/ha,99%
same,herbicidal effect [%],Taraxacum officinale; [3],87%
same,herbicidal effect [%],Achillea millefolium; 37.5 g of active compound/ha,67%
same,herbicidal effect [%],Lotus corniculatus; 37.5 g of active compound/ha,23%
"COc1cc(OC)nc(NC(=O)NS(=O)(=O)c2cc(NC=O)ccc2C(=O)N(C)C)n1 [Foramsulfuron, 1-(4,6-dimethoxypyrimidin-2yl)-3-(2-dimethylcarbamoyl-5-formamidophenylsulfonyl)urea]",herbicidal effect [%],Trifolium repens; [4],18.3%
same,herbicidal effect [%],Trifolium repens; [5],20%
same,herbicidal effect [%],Trifolium repens; [6],53%
same,herbicidal effect [%],Trifolium repens; [7],60%
same,herbicidal effect [%],Plantago lanceolata; 45 g of active compound/ha,8%
same,herbicidal effect [%],Stellaria media; 45 g of active compound/ha,18%
same,herbicidal effect [%],Plantago major; [4],0%
same,herbicidal effect [%],Plantago major; [5],47%
same,herbicidal effect [%],Plantago major; [6],23%
same,herbicidal effect [%],Plantago major; [7],33.3% and 33%
same,herbicidal effect [%],Chenopodium album; [4],0%
same,herbicidal effect [%],Chenopodium album; [5],8%
same,herbicidal effect [%],Chenopodium album; [6],13%
same,herbicidal effect [%],Chenopodium album; [7],13.3% and 13%
same,herbicidal effect [%],Bellis perennis; 45 g of active compound/ha,13%
same,herbicidal effect [%],Festuca ovina; [4],6.7%
same,herbicidal effect [%],Festuca ovina; [5],35%
same,herbicidal effect [%],Festuca ovina; [6],53%
same,herbicidal effect [%],Festuca ovina; [7],58.3% and 58%
same,herbicidal effect [%],Rumex acetosa; 45 g of active compound/ha,11%
same,herbicidal effect [%],Ranunculus repens; 45 g of active compound/ha,95%
same,herbicidal effect [%],Taraxacum officinale; [4],45%
same,herbicidal effect [%],Taraxacum officinale; [5],55%
same,herbicidal effect [%],Taraxacum officinale; [6],70%
same,herbicidal effect [%],Taraxacum officinale; [7],75%
same,herbicidal effect [%],Achillea millefolium; 45 g of active compound/ha,17%
same,herbicidal effect [%],Poa annua; 15 g of active compound/ha,18.3%
same,herbicidal effect [%],Poa annua; 45 g of active compound/ha,48%
same,herbicidal effect [%],Poa annua; 60 g of active compound/ha,73.3% and 73%
same,herbicidal effect [%],Lotus corniculatus; 45 g of active compound/ha,0%
"COc1nc(C)nc(NC(=O)NS(=O)(=O)c2cc(I)ccc2C(=O)[O-])n1.[Na+] [Iodosulfuron-methyl sodium salt, 4-iodo-2-[(4-methoxy-6-methyl-1,3,5-triazin-2-yl)carbamoylsulfamoyl]benzoate, sodium salt]",herbicidal effect [%],Trifolium repens; [8],18.3%
same,herbicidal effect [%],Trifolium repens; [9],10%
same,herbicidal effect [%],Trifolium repens; [10],32%
same,herbicidal effect [%],Trifolium repens; [11],45%
same,herbicidal effect [%],Trifolium repens; [12],80%
same,herbicidal effect [%],Plantago lanceolata; 1.25 g of active compound/ha,3%
same,herbicidal effect [%],Stellaria media; 1.25 g of active compound/ha,22%
same,herbicidal effect [%],Plantago major; [8],0%
same,herbicidal effect [%],Plantago major; [9],22%
same,herbicidal effect [%],Plantago major; [10],3%
same,herbicidal effect [%],Plantago major; [11],30%
same,herbicidal effect [%],Plantago major; [12],53.3%
same,herbicidal effect [%],Chenopodium album; [8],0%
same,herbicidal effect [%],Chenopodium album; [9],13%
same,herbicidal effect [%],Chenopodium album; [10],0%
same,herbicidal effect [%],Chenopodium album; [11],10%
same,herbicidal effect [%],Chenopodium album; [12],40%
same,herbicidal effect [%],Bellis perennis; 1.25 g of active compound/ha,10%
same,herbicidal effect [%],Festuca ovina; [8],0%
same,herbicidal effect [%],Festuca ovina; [9],0%
same,herbicidal effect [%],Festuca ovina; [10],0%
same,herbicidal effect [%],Festuca ovina; [11],0%
same,herbicidal effect [%],Festuca ovina; [12],6.7%
same,herbicidal effect [%],Rumex acetosa; 1.25 g of active compound/ha,12%
same,herbicidal effect [%],Ranunculus repens; 1.25 g of active compound/ha,73%
same,herbicidal effect [%],Taraxacum officinale; [8],18.3%
same,herbicidal effect [%],Taraxacum officinale; [9],50%
same,herbicidal effect [%],Taraxacum officinale; [10],18%
same,herbicidal effect [%],Taraxacum officinale; [11],42%
same,herbicidal effect [%],Taraxacum officinale; [12],85%
same,herbicidal effect [%],Achillea millefolium; 1.25 g of active compound/ha,5%
same,herbicidal effect [%],Poa annua; 1 g of active compound/ha,0%
same,herbicidal effect [%],Poa annua; 1.25 g of active compound/ha,0%
same,herbicidal effect [%],Poa annua; 2.5 g of active compound/ha,0%
same,herbicidal effect [%],Poa annua; 10 g of active compound/ha,0%
same,herbicidal effect [%],Lotus corniculatus; 1.25 g of active compound/ha,0%
"COC(=O)c1ccc(CNS(C)(=O)=O)cc1S(=O)(=O)NC(=O)Nc1nc(OC)cc(OC)n1 [Mesosulfuron-methyl, methyl 2-[(4,6-dimethoxypyrimidin-2-ylcarbamoyl)sulfamoyl]-a-(methanesulfonamido)-p-toluate]",herbicidal effect [%],Trifolium repens; [13],2%
same,herbicidal effect [%],Plantago lanceolata; 15 g of active compound/ha,0%
same,herbicidal effect [%],Stellaria media; 15 g of active compound/ha,2%
same,herbicidal effect [%],Plantago major; [13],0%
same,herbicidal effect [%],Chenopodium album; [13],3%
same,herbicidal effect [%],Bellis perennis; 15 g of active compound/ha,5%
same,herbicidal effect [%],Festuca ovina; [13],0%
same,herbicidal effect [%],Rumex acetosa; 15 g of active compound/ha,2%
same,herbicidal effect [%],Ranunculus repens; 15 g of active compound/ha,80%
same,herbicidal effect [%],Taraxacum officinale; [13],42%
same,herbicidal effect [%],Achillea millefolium; 15 g of active compound/ha,4%
same,herbicidal effect [%],Lotus corniculatus; 15 g of active compound/ha,0%
"COC(=O)c1csc(C)c1S(=O)(=O)NC(=O)n1nc(OC)n(C)c1=O [Thiencarbazone-methyl, methyl 4-[(4,5-dihydro-3-methoxy-4-methyl-5-oxo-1H-1,2,4-triazol-1yl)carbonylsulfamoyl]-5-methylthiophene-3-carboxylate]",herbicidal effect [%],Trifolium repens; [14],55%
same,herbicidal effect [%],Plantago lanceolata; 20 g of active compound/ha,67%
same,herbicidal effect [%],Stellaria media; 20 g of active compound/ha,53%
same,herbicidal effect [%],Plantago major; [14],87%
same,herbicidal effect [%],Chenopodium album; [14],23%
same,herbicidal effect [%],Bellis perennis; 20 g of active compound/ha,28%
same,herbicidal effect [%],Festuca ovina; [14],42%
same,herbicidal effect [%],Rumex acetosa; 20 g of active compound/ha,52%
same,herbicidal effect [%],Ranunculus repens; 20 g of active compound/ha,97%
same,herbicidal effect [%],Taraxacum officinale; [14],38%
same,herbicidal effect [%],Achillea millefolium; 20 g of active compound/ha,25%
same,herbicidal effect [%],Lotus corniculatus; 20 g of active compound/ha,2%
